Experimental data: patent EP3290412A1, “HIV-1 NUCLEOCAPSID INHIBITORS” (Università degli Studi di Siena, priority 2016, dated 2018)

Columns and labels:
NC(11-55) = NC(11-55) (Human immunodeficiency virus type 1, UniProt P12493); assay: NC inhibition assay (NC-induced cTAR DNA destabilization, fluorescence); assay type: biochemical, HIV-1; settings: for inhibition at 100 µM: single point screening, positive = >25% inhibition at 100µM
Summary of the method: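 Doubly labelled cTAR (0.1 µM, Alexa488/Dabcyl) pre-complexed with 1 µM Zn-loaded NC(11-55) for 15 min, then compound added for a further 15 min; run at 20 °C in Tris-HCl pH 7.5, 30 mM NaCl, 0.2 mM MgCl2. Fluorescence read at ex 480/em 520 nm. IC50 taken from dose-response fit of % inhibition of NC-induced fluorescence increase.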

[1] = molecular target: T1, full length (1-55) HIV-1 NCp7 (Human immunodeficiency virus type 1 group M subtype B, UniProt P12493); assay: Electromobility Shift Assay (EMSA), competition for ssDNA binding; settings: NCp7 300 nM, M13mp18 ssDNA; positive = >25% inhibition at 100µM
T1 construct: recombinant full length (1-55) HIV-1 NCp7 proteins; made in house
Summary of the method: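 Recombinant NL4-3 NCp7 (300 nM in the pre-mix) was combined with compound in 20 mM Tris-HCl pH 7.4, 2 mM MgCl2, 100 mM NaCl, 1 mM DTT, then M13mp18 ssDNA was added for 25 min at 37 °C. Complexes were run on 1% agarose/0.5x TBE and stained with SybrGold. IC50 is the concentration at which bound ssDNA migrated 50% of the bound–unbound distance (triplicate).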

[2] = tested on: HIV-1 reference strain NL4-3; assay: BiCycle assay (MT-2 then TZM-bl cells); assay type: cell-based; settings: Human immunodeficiency virus 1, NL43, TZM-bl, read-out: BiCycle IC50 nM
Summary of the method: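 MT-2 cells were infected with NL4-3 in the presence of five-fold compound dilutions. After 72 h, the supernatant was passed to TZM-bl cells. Two days later, luciferase luminescence was read and IC50 calculated, giving a readout that spans the whole replication cycle.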

SMILES: CC(NC(=O)c1nc(-c2cc(Cl)ccn2)nc(O)c1O)C1CCC(F)(F)CC1 (stereo not drawn) [Compound 87, 2-(4-chloropyridin-2-yl)-N-(1-(4,4-difluorocyclohexyl)ethyl)-5,6-dihydroxypyrimidine-4-carboxamide]
- IC50 (NC(11-55)): 41 µM
- inhibition at 100 µM (NC(11-55)): > 25%
- EMSA screening results [1]: Negative
- IC50 [2]: 1830 nM

SMILES: C[C@@H](NC(=O)c1nc(-c2cc(CCN)ccn2)nc(O)c1O)C1CCCCC1 [Compound 88, (R)-2-(4-(2-aminoethyl)pyridin-2-yl)-N-(1-cyclohexylethyl)-5,6-dihydroxypyrimidine-4-carboxamide]
- IC50 (NC(11-55)): 7.5 µM
- inhibition at 100 µM (NC(11-55)): > 25%
- EMSA screening results [1]: Positive (A compound showing >25% inhibition when tested at 100µM concentration is considered as "positive")
- IC50 [2]: 12700 nM

SMILES: CCNS(=O)(=O)c1ccc(-c2nc(O)c(O)c(C(=O)N[C@H](C)C3CCCCC3)n2)nc1 [Compound 89, (R)-N-(1-cyclohexylethyl)-2-(5-(N-ethylsulfamoyl)pyridin-2-yl)-5,6-dihydroxypyrimidine-4-carboxamide]
- IC50 (NC(11-55)): 28 µM
- inhibition at 100 µM (NC(11-55)): > 25%
- EMSA screening results [1]: Negative
- IC50 [2]: 10400 nM

SMILES: C[C@@H](NC(=O)c1nc(-c2cc(CCNCc3cccn3C)ccn2)nc(O)c1O)C1CCCCC1 [Compound 91, (R)-N-(1-cyclohexylethyl)-5,6-dihydroxy-2-(4-(2-(((1-methyl-1H-pyrrol-2-yl)methyl)amino)ethyl)pyridin-2-yl)pyrimidine-4-carboxamide]
- IC50 (NC(11-55)): 12 µM
- inhibition at 100 µM (NC(11-55)): > 25%
- EMSA screening results [1]: Positive (A compound showing >25% inhibition when tested at 100µM concentration is considered as "positive")
- IC50 [2]: 1100 nM

SMILES: C[C@@H](NC(=O)c1nc(-c2cc(CCN(C)C)ccn2)nc(O)c1O)C1CCCCC1 [Compound 92, (R)-N-(1-cyclohexylethyl)-2-(4-(2-(dimethylamino)ethyl)pyridin-2-yl)-5,6-dihydroxypyrimidine-4-carboxamide]
- IC50 (NC(11-55)): 10 µM
- inhibition at 100 µM (NC(11-55)): > 25%
- EMSA screening results [1]: Negative
- IC50 [2]: 1400 nM

SMILES: C[C@@H](NC(=O)c1nc(-c2ccc(CN3CCCC3)cn2)nc(O)c1O)C1CCCCC1 [Compound 93, (R)-N-(1-cyclohexylethyl)-5,6-dihydroxy-2-(5-(pyrrolidin-1-ylmethyl)pyridin-2-yl)pyrimidine-4-carboxamide]
- IC50 (NC(11-55)): 50 µM
- inhibition at 100 µM (NC(11-55)): > 25%
- EMSA screening results [1]: Negative
- IC50 [2]: 1360 nM
